Ki data for 22 compounds are collected here from patent US11034698B2, “Pyrazolo[ 1,5a]pyrimidine derivatives as IRAK4 modulators” (priority 2017, dated 2021).

In the first test the target is human IRAK4 (Homo sapiens (Human), UniProt Q9NWZ3). Kind of test: IRAK4 kinase inhibition, Transcreener fluorescence polarization (ADP). Type of test: biochemical.
human IRAK4, sequence (Q9NWZ3 whole entry): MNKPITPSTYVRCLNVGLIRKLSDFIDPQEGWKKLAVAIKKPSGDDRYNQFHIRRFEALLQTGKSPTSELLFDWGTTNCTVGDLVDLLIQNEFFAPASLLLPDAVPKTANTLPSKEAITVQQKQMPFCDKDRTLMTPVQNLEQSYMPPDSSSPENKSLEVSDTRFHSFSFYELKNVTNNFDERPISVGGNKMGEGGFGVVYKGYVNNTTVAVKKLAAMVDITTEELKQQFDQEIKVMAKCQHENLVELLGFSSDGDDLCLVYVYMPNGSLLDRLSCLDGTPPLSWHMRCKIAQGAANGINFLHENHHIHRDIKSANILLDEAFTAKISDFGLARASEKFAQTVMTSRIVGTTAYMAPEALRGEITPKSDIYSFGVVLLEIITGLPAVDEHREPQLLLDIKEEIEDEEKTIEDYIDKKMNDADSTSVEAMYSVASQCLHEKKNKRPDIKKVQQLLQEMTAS
Settings: not given
As to the method: Compounds were assayed for inhibition of human IRAK4 and IRAK1 catalytic activity using recombinant enzyme produced from insect cells. Full-length IRAK4 protein, carrying an N-terminal His6-Tag, was obtained from Life Technologies (Carlsbad, Calif., USA). The IRAK1 construct was produced internally and was comprised of IRAK1 residues Arg194 to Ser712, preceded by an NH2-terminal His6 tag and the coding sequence for glutathione-S-transferase.
Kinase activities were assayed using the Transcreener-Fluorecescence polarization platform (BelBrook Labs, Madison, Wis., USA) that measures amounts of the reaction product, ADP.
Background: In fluorescence polarisation assays a small probe gives low polarisation when free and higher when bound to something large.
What is called Ki is the dissociation constant of the complex between target and ligand, obtained from inhibition or displacement. `CC1(C)Cc2cc(NC(=O)c3cnn4cccnc34)c(OC[C@H]3Cc4ccccc4[C@H]3N)cc2O1` (single isomer, unassigned) [Example 27] registered an inhibitory constant (Ki) of 670 nM.
For `CC1(C)Cc2cc(NC(=O)c3cnn4cccnc34)c(OC[C@H]3C[C@H]4NCCO[C@@H]4C3)cc2O1` (single isomer, unassigned) [Example 33], affinity was put at a Ki of 230 nM.
Take `CC(C)(O)[C@H](F)CN1Cc2cc(NC(=O)c3cnn4cccnc34)c(O[C@@H]3CCNC3)cc2C1=O` (single isomer, unassigned) [Example 63]: the affinity corresponds to a Ki of 5.3 nM.
Compound `COc1cc2c(cc1NC(=O)c1cnn3ccc(N4C[C@H](N)CC(F)(F)C4)nc13)CC(C)(C)O2` (single isomer, unassigned) [Example 37] had a Ki of 7.7 nM.

The same test, now with this note: recombinant full-length His6-IRAK4 1.25 nM; 125 uM ATP; 125 uM peptide; 90 min; ATP Km 642 uM; read-out: IRAK4 Ki.
Consider `C[C@@]1(CCC#N)COc2cc(N3CCOCC3)c(NC(=O)c3cnn4cccnc34)cc2C1` [Example 58, (S)—N-(3-(2-Cyanoethyl)-3-methyl-7-morpholinochroman-6-yl)pyrazolo[1,5-a]pyrimidine-3-carboxamide], for which the Ki turned out to be 19 nM.
`Cc1ccc(-c2cc3c(cc2NC(=O)c2cnn4cccnc24)CN(C[C@@H](F)C(C)(C)O)C3=O)nc1` [Example 146, (R)-N-(2-(2-Fluoro-3-hydroxy-3-methylbutyl)-6-(5-methylpyridin-2-yl)-1-oxoisoindolin-5-yl)pyrazolo[1,5-a]pyrimidine-3-carboxamide]: the inhibition constant (Ki) came to 8.1 nM.
Still for that read-out and setting: with `CC(C)(O)[C@H](F)CN1Cc2cc(NC(=O)c3cnn4cccnc34)c(O[C@H]3C[C@@H](F)C3)cc2C1=O` [Example 61, N-[6-(3-Fluorocyclobutoxy)-2-[(2R)-2-fluoro-3-hydroxy-3-methyl-butyl]-1-oxo-isoindolin-5-yl]pyrazolo[1,5-a]pyrimidine-3-carboxamide] the figure was 0.28 nM; with `O=C(Nc1cc2c(cc1N1CCOCC1)C(=O)N(C1CC3(COC3)C1)C2)c1cnn2cccnc12` [Example 94, N-[6-Morpholino-2-(2-oxaspiro[3.3]heptan-6-yl)-1-oxo-isoindolin-5-yl]pyrazolo[1,5-a]pyrimidine-3-carboxamide], 4.9 nM.
On the same count and under the same terms, with `CC(C)(O)[C@H](F)CN1Cc2cc(NC(=O)c3cnn4cccnc34)c(OC(F)F)cc2C1=O` [Example 88, (R)-N-(6-(Difluoromethoxy)-2-(2-fluoro-3-hydroxy-3-methylbutyl)-1-oxoisoindolin-5-yl)pyrazolo[1,5-a]pyrimidine-3-carboxamide] the figure was 0.5 nM; with `CCc1nocc1CN1CCN(c2cc3c(cc2NC(=O)c2cnn4cccnc24)CN(C[C@@H](F)C(C)(C)O)C3=O)CC1` [Example 104, (R)-N-(6-(4-((3-Ethylisoxazol-4-yl)methyl)piperazin-1-yl)-2-(2-fluoro-3-hydroxy-3-methylbutyl)-1-oxoisoindolin-5-yl)pyrazolo[1,5-a]pyrimidine-3-carboxamide], 5 nM.
The same measure, in the same setting: with `CCc1oncc1CN1CCN(c2cc3c(cc2NC(=O)c2cnn4cccnc24)CN(C[C@@H](F)C(C)(C)O)C3=O)CC1` [Example 103, (R)-N-(6-(4-((5-Ethylisoxazol-4-yl)methyl)piperazin-1-yl)-2-(2-fluoro-3-hydroxy-3-methylbutyl)-1-oxoisoindolin-5-yl)pyrazolo[1,5-a]pyrimidine-3-carboxamide] the figure was 5.4 nM; with `CC1(C)Cc2cc(NC(=O)c3cnn4cccnc34)c(OC[C@H]3C[C@@H]4NCCO[C@H]4C3)cc2O1` [Example 30, N-(2,2-Dimethyl-6-(((4aS,6S,7aS)-octahydrocyclopenta[b][1,4]oxazin-6-yl)methoxy)-2,3-dihydrobenzofuran-5-yl)pyrazolo[1,5-a]pyrimidine-3-carboxamide], 66 nM; with `CC1(C)Cc2cc3c(cc2O1)N1CCN(CCNc2ccn4ncc(c4n2)C(=O)N3)CC1` [Example 45, (5^3E,5^4E)-2^2,2^2-Dimethyl-2^2,2^3-dihydro-3,6-diaza-5(3,5)-pyrazolo[1,5-a]pyrimidina-1(1,4)-piperazina-2(6,5)-benzofuranacyclooctaphan-4-one], 120 nM.
In the case of `CC(C)(O)[C@H](F)CN1Cc2cc(NC(=O)c3cnn4cccnc34)c(OCC(F)F)cc2C1=O` [Example 65, (R)-N-(6-(2,2-Difluoroethoxy)-2-(2-fluoro-3-hydroxy-3-methylbutyl)-1-oxoisoindolin-5-yl)pyrazolo[1,5-a]pyrimidine-3-carboxamide], the Ki amounted to 0.26 nM.
As to `CN(C)c1cc2c(cc1NC(=O)c1cnn3ccc(C(=O)NC4CC4)nc13)CN(C[C@@H](F)C(C)(C)O)C2=O` [Example 132, (R)—N^5-Cyclopropyl-N^3-(6-(dimethylamino)-2-(2-fluoro-3-hydroxy-3-methylbutyl)-1-oxoisoindolin-5-yl)pyrazolo[1,5-a]pyrimidine-3,5-dicarboxamide], the Ki came out at 19 nM.
For `CNc1cc2c(cc1NC(=O)c1cnn3cccnc13)CN(C[C@@H](F)C(C)(C)O)C2=O` [Example 91, N-[2-[(2R)-2-Fluoro-3-hydroxy-3-methyl-butyl]-6-(methylamino)-1-oxo-isoindolin-5-yl]pyrazolo[1,5-a]pyrimidine-3-carboxamide], the Ki was 280 nM.
Still for that read-out and setting: with `CC1(C)Cc2cc(NC(=O)c3cnn4cccnc34)c(N3CCN(C[C@@H]4CCCC(=O)N4)CC3)cc2O1` [Example 6, (S)-N-(2,2-Dimethyl-6-(4-((6-oxopiperidin-2-yl)methyl)piperazin-1-yl)-2,3-dihydrobenzofuran-5-yl)pyrazolo[1,5-a]pyrimidine-3-carboxamide] the figure was 5.3 nM; with `CO[C@@H]1C[C@H]2CN(c3cc4c(cc3NC(=O)c3cnn5cccnc35)CN(C[C@@H](F)C(C)(C)O)C4=O)CCN2C1` [Example 101, N-(2-((R)-2-Fluoro-3-hydroxy-3-methylbutyl)-6-((7R,8aS)-7-methoxyhexahydropyrrolo[1,2-a]pyrazin-2(1H)-yl)-1-oxoisoindolin-5-yl)pyrazolo[1,5-a]pyrimidine-3-carboxamide], 12 nM.
With `COCCN1CCN(c2cc3c(cc2NC(=O)c2cnn4cccnc24)CN(C[C@@H](F)C(C)(C)O)C3=O)CC1` [Example 112, (R)-N-(2-(2-Fluoro-3-hydroxy-3-methylbutyl)-6-(4-(2-methoxyethyl)piperazin-1-yl)-1-oxoisoindolin-5-yl)pyrazolo[1,5-a]pyrimidine-3-carboxamide], the Ki is 2.6 nM.
On the same count and under the same terms, the same measure for `CC(C)(O)[C@H](F)CN1Cc2cc(NC(=O)c3cnn4cccnc34)c(O[C@H]3CCNC3)cc2C1=O` [Example 62, N-[2-[(2R)-2-Fluoro-3-hydroxy-3-methyl-butyl]-1-oxo-6-[(3S)-pyrrolidin-3-yl]oxy-isoindolin-5-yl]pyrazolo[1,5-a]pyrimidine-3-carboxamide]: 9.2 nM.
As to `CC(C)(O)[C@H](F)CN1Cc2cc(NC(=O)c3cnn4cccnc34)c(N3CCC(CC(F)F)CC3)cc2C1=O` [Example 96, (R)-N-(6-(4-(2,2-Difluoroethyl)piperidin-1-yl)-2-(2-fluoro-3-hydroxy-3-methylbutyl)-1-oxoisoindolin-5-yl)pyrazolo[1,5-a]pyrimidine-3-carboxamide], the Ki turned out to be 1.5 nM.
Regarding `CN(C)CCN1CCN(c2cc3c(cc2NC(=O)c2cnn4cccnc24)CC(C)(C)O3)CC1` [Example 4, N-(6-(4-(2-(Dimethylamino)ethyl)piperazin-1-yl)-2,2-dimethyl-2,3-dihydrobenzofuran-5-yl)pyrazolo[1,5-a]pyrimidine-3-carboxamide], the Ki worked out at 41 nM.
